Literature values, collected in US20090148532A1, “Preparation of controlled release skeletal muscle relaxant dosage forms” (priority 2007, published 2009).

Details: after oral administration

Elimination half-life: one to three
Compound: CN(C)CCC=C1c2ccccc2C=Cc2ccccc21 [Cyclobenzaprine]
